Test results reported in patent publication US12139744B2, “Stabilisation of biological samples” (QIAGEN GmbH, priority 2013, dated 2024).
* marks the point of attachment. Cbz = O=C(OCc1ccccc1)*; CH2F = FC*

Tests used:
[1] = system: PKC; details: cited from earlier work
[2] = system: FOS, IL1B, IL8 and TP53 transcripts; assay: Transcript level stabilisation in stored blood, real time RT-PCR; type: cell-based, human; details: blood incubated at RT for 0, 24 and 72 hours; DMPA 5% v/v final in EDTA blood, 5xMOPS pH5.5
Source text: A test system and study setup was established that allows the identification of reagent compositions that have gene transcript stabilisation capabilities, as indicated by constant levels of transcripts from selected genes (c-fos, IL-1beta, IL-8, p53). These transcripts were identified in prior studies as very unstable transcripts during storage, which are induced or down regulated (gains and losses of transcripts) within minutes after blood collection and were therefore chosen as “worst case” markers for screening purposes.
Blood was collected from multiple donors into replicate EDTA blood tubes (BD, [−] control of sample stabilisation) and PAXgene Blood RNA Tubes (PreAnalytiX) serving as [+] control of sample stabilisation. PAXgene Blood RNA tubes contain a composition (see also background of the invention) that lysis cells and thereby “freeze” the gene transcription profile. PAXgene Blood RNA tubes are for stabilizing blood for gene expression analysis. One aim was to find stabilization method that not based on cell lysis but achieves the same or similar performance as the PAXgene Blood RNA tubes in transcript level stabilization. […]
Transcript levels of all RNA samples were analysed by real time RT-PCR using monoplex assays of FOS, IL1B, IL8 and TP53, normalized to the amount of template input into the reaction. […]

[3] = system: CD3 on lymphocytes; assay: aCD3 FACS analysis of cell and cell surface epitope integrity; type: cell-based, human; details: EDTA blood, test solution 5% v/v DMPA, RT 0 h, 24 h, 72 h
Method: FIG. 5: Fluorescence activated cell sorting (aCD3 FACS) analysis of sample aliquots from blood collected from one donor into EDTA tubes. Blood aliquots were subjected to FACS using PE-conjugated anti-CD3 antibody from samples that were not incubated after blood collection (0 h) and samples after one and three days of incubation at RT (24 h, 72 h). The number of fluorescence-labelled cells was counted and the intensity of the fluorescence signal per event was quantified. Intensity (x-axis) and number of fluorescence signals (y-axis) are shown as histograms. Thresholds were defined to differentiate unspecific weak fluorescence signals (−) from stronger specific fluorescence signals caused by specifically bound anti-CD3 antibody to cells (+). […]
Cell and cell surface epitope integrity was analysed by fluorescence activated cell sorting (FACS) using fluorescence conjugated anti-CD3 antibody
In addition, cell and cell surface epitope integrity was analysed in the stabilized samples by fluorescence activated cell sorting (FACS). In detail, the presence and accessibility of cell surface proteins was analysed by binding of fluorescence conjugated antibody (PE-labelled anti-CD3) directed against cellular epitope CD3 that is specific for lymphocytes, while other white blood cell subtypes (monocytes, neutrophilic granulocytes) are CD3 negative.

[4] = system: 18S ribosomal DNA; assay: 18S rDNA increase in plasma of stored blood (qPCR, 66 bp and 500 bp amplicons); type: cell-based, human; details: for Released DNA (18S rDNA) after storage: 3 and 6 days RT, vs unstabilized EDTA blood
Method: Blood obtained from donors was collected into 10 ml K2 EDTA tubes (BD). 4.5 ml of the respectively collected blood was mixed with 0.9 ml of different stabilization solutions (see below examples on the details of the tested stabilization solutions).
All stabilized blood samples were set up in triplicates per condition and test time point. At time point 0 (reference), immediately after mixing the stabilization solution and blood, plasma was generated and the circulating extracellular DNA was extracted. The residual stabilized blood sample was stored for three days and six days at room temperature.
Plasma was generated from the stabilized and unstabilized (EDTA) blood samples by inverting the blood containing tubes for four times. Then, the tubes were centrifuged for 10 minutes at 1900×g at 4° C. 2.5 ml of the plasma fraction was transferred into a fresh 15 ml falcon tube and centrifuged for 10 minutes at 16.000×g at 4° C. 2 ml of the respectively cleared plasma was used for extracellular nucleic acid isolation using the QIAamp circulating nucleic acid kit (QIAGEN) according to the manufacturer's instructions.
The isolated extracellular DNA was analyzed using two different qPCR assays, targeting different fragment lengths of the 18S ribosomal DNA:
Cycle threshholds of the individual samples were translated into amount of gDNA in the eluate, according to a gDNA standard curve. The gDNA amount of the storage time points was compared to the time zero gDNA level from the same donor and is shown as fold increase in the figures. Especially the increase of the 500 bp fragment in the plasma fraction of the blood sample after storage is an indication for a lysis/destruction of white blood cells. Thus, the lower the amount of released 500 bp DNA, the better the performance of the stabilization method.

[5] = system: blood samples; assay: Inspection of plasma for hemolysis; type: cell-based, human; details: Example 4: 2.5% and 5% DMPA with caspase inhibitor
Source text: The focus of the analysis was the stabilization of the extracellular nucleic acid population as determined by analyzing the increase of 18S rDNA. Shown is the increase of DNA relative to time point 0 with 2.5%, 5% and 7.5% N,N dimethylpropanamide (DMPA) or 5% DMAA with caspase inhibitor (fold change) using different amplicon lengths of 18SrRNA gene. Bars indicate the mean of the triplicate samples per condition and test time point. […] Thus, a stabilization of the extracellular nucleic acid population was achieved. Furthermore, the obtained plasma was inspected in order to analyse whether hemolysis occurred.

[6] = system: cells; details: cited from earlier work
[7] = molecular target: T1, calpain II (Homo sapiens, UniProt P17655); details: irreversible inhibitor; cited from earlier work
T1 sequence (P17655 1-700): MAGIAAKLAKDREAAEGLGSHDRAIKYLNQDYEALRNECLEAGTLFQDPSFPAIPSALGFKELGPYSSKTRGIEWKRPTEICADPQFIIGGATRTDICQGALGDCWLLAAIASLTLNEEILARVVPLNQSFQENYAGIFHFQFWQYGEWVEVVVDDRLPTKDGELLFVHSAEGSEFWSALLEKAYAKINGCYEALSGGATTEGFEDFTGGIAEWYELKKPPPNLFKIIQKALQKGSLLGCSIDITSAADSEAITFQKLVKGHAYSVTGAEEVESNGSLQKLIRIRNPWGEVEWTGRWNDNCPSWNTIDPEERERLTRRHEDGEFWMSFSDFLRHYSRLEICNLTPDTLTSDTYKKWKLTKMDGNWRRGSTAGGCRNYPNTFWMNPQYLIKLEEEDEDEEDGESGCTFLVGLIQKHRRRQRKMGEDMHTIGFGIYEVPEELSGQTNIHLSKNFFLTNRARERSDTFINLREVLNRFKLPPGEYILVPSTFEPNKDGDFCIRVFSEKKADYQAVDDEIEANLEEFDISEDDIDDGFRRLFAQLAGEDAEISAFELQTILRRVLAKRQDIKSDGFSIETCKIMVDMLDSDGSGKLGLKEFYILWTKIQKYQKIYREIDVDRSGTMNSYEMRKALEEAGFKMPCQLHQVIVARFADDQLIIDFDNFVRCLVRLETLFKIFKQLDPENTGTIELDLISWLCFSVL
T1 sequence (P04632 1-268 partner): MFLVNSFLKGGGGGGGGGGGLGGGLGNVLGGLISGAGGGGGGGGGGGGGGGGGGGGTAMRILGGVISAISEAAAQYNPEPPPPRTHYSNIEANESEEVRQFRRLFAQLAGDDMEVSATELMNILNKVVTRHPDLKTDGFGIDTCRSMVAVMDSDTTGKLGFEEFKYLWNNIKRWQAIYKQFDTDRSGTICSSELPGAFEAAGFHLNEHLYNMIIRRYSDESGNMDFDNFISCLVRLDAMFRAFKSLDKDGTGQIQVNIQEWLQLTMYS

Compound: O=c1c(O)c(-c2ccc(O)c(O)c2)oc2cc(O)cc(O)c12 [Quercetin]
- IC50 PKC [1]: 15 μg/ml. It strongly abrogated PI3K and Src kinases, mildly

Compound: CCC(=O)N(C)C [DMPA, N,N-dimethylpropanamide]
- Relative transcript levels of FOS, IL1B, IL8 and TP53 (CT values) over storage [2]: stabilised expression levels
- Detection of lymphocytes by PE-conjugated anti-CD3 FACS [3]: detectable for up to three days
- Increase in 18S rDNA relative to time point 0 ([4]; Example 2: DMPA […], 2% or 2.5% without caspase inhibitor, 7.2 mg K2 EDTA/ml, RT up to 6 days, vs EDTA blood): significantly reduced increase in 18S rDNA
- Released DNA (18S rDNA) after storage ([4]; Example 3: 2.5%, 5% or 7.5% (v/v) with 1 μM Quinoline-Val-Asp-CH2-OPH and K2 EDTA): significantly lower amounts of released DNA
- Released DNA (18S rDNA) after storage ([4]; Example 4: 2.5%, 5% or 7.5% DMPA with 1 μM caspase inhibitor, 7.2 mg K2 EDTA/ml): significantly lower amounts of released DNA
- Increase in 18S rDNA relative to time point 0 ([4]; Example 5: DMPA in different concentrations with 1 μM caspase inhibitor, 7.2 mg K2 EDTA/ml): significantly reduced increase in 18S rDNA
- Hemolysis in plasma obtained from stabilized blood [5]: did not show signs of hemolysis

Compound: Cbz-Val-Ala-Asp-CH2F
- Cytotoxicity [6]: no added cytotoxic effects

Compound: Cbz-Leu-Leu-Tyr-CH2F [Calpain Inhibitor IV]
- k2 calpain II [7]: = 28,900 M-1s-1). Also acts as an inhibitor of cathepsin L (k2 =
